Our source for the IC50 values is US9376429B2, “Sodium channel blockers, preparation method thereof and use thereof” (Daewoong Pharmaceutical Co., Ltd., priority 2012, dated 2016).

T1 sequence (Q15858 whole entry): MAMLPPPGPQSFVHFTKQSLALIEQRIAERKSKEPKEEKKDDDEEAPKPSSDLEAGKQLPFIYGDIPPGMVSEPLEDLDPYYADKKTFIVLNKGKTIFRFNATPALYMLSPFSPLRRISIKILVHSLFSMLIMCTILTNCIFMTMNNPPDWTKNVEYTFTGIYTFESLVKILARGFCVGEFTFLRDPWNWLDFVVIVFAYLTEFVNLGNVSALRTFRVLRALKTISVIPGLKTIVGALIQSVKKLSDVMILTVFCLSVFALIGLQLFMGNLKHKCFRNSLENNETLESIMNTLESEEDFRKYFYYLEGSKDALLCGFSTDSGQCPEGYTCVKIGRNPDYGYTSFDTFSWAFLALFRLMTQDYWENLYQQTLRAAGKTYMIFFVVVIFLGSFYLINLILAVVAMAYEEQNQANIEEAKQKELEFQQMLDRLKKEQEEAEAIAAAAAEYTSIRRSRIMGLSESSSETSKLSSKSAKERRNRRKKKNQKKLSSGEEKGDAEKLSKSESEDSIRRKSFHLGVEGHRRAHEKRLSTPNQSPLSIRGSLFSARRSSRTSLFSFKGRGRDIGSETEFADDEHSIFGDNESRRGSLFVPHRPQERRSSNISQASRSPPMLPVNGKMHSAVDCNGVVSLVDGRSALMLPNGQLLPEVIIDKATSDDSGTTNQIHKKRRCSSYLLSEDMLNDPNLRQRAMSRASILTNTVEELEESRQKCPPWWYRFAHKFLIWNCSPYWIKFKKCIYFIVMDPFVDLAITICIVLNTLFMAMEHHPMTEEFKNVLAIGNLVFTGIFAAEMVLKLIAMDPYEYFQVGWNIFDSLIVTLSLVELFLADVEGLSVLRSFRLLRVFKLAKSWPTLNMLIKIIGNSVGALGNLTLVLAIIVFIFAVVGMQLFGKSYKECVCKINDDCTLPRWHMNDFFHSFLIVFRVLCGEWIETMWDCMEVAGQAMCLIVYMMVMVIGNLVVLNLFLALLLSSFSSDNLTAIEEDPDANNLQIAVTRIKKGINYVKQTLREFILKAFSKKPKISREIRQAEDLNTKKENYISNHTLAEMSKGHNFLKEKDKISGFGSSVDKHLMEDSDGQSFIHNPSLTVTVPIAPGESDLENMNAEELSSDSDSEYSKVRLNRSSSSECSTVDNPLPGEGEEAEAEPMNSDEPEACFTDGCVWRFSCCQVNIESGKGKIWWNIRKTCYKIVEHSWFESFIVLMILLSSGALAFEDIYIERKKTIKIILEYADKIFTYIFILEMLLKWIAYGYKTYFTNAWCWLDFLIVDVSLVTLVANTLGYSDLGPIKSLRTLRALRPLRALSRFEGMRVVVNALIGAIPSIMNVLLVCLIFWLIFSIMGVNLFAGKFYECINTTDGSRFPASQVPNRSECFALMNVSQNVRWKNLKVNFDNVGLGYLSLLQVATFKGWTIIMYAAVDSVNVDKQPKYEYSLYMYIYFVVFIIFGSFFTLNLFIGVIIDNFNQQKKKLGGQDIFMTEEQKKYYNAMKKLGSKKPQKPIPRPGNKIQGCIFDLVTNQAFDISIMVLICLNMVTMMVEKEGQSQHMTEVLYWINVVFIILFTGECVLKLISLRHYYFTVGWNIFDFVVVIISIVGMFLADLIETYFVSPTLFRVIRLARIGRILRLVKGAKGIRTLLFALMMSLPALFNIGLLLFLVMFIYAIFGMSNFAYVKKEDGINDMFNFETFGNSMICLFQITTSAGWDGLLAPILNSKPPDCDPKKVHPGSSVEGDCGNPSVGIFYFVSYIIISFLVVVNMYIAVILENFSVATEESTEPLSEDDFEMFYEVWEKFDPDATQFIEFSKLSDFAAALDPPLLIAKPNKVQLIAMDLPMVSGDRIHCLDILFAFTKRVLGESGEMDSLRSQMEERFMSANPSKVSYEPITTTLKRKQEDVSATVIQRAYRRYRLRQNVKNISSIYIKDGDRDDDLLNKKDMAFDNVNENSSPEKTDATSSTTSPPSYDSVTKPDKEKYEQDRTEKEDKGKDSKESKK

The experiment has as its target T1, sodium ion channel (Nav1.7) (Homo sapiens, UniProt Q15858).
T1 construct: host or cells: HEK293
Kind of experiment: Blocking effect against sodium ion channel (Nav1.7), IonFlux16 auto patch clamp, hNav1.7 HEK293 cells. It is filed as cell-based. Particulars: peak current after 50 seconds treatment, eight concentrations. The procedure:
In order to measure the activities of the inventive compounds as antagonists, an experiment on a blocking effect against the sodium ion channel (Nav1.7) was carried out as follows.
The hNav1.7 HEK293 cell line used was a cell line having a human sodium ion channel 1.7 gene (type IX voltage-gated sodium channel alpha subunit) in human embryonic kidney (HEK) 293 cells and was purchased from Millipore. The medium used was prepared by adding 1% 100×NEAA and 10% heat inactivated FBS to DMEM F-12 and adding 1% P/S as an antibiotic thereto. G-418 as a […] was added during subculture, and the hNav1.7 HEK293 cells were cultured to a confluence of about 80% in a T75 flask in a 5% CO2 incubator at 37° C. for 2 or 3 days and detached from the flask by treatment with 0.25% trypsin solution. Then, the cells were collected by centrifugation and used in the experiment.
The compounds prepared in the Examples of the present invention were dissolved in dimethyl sulfoxide (DMSO) and used in the experiment. 90 mM and 10 mM DMSO stock solutions were prepared from each of the compounds and diluted in an extracellular solution (4 mM KCl, 138 mM NaCl, 1 mM MgCl2, 1.8 mM CaCl2, 5.6 mM glucose, 10 mM HEPES, pH 7.45) at various concentrations so that the final concentration of each compound in DMSO was 0.3% or less.
To measure the sodium ion channel blocking effect, an IonFlux16 Auto patch clamp system (Fluxion, Inc.) and a plate for exclusive use were used. The cells were distributed in an extracellular solution (4 mM KCl, 138 mM NaCl, 1 mM MgCl2, 1.8 mM CaCl2, 5.6 mM glucose, 10 mM HEPES, pH 7.45), and then dispensed in the specified region of the plate, and each of the prepared compound samples was diluted at various concentrations, and then dispensed in the specified region of the plate.
Specifically, eight concentrations per compound were set, and percent inhibition was determined by calculating the percentage of inhibition of the peak current, generated after treating the cells with each concentration of the compound for 50 seconds, relative to the peak current generated before treatment with the compound, and the IC50 value was calculated using the Sigma plot program. In Table 2 below, the percent inhibition of Nav1.7 is rated as follows: […]
For the compound `O=S(=O)(Nc1cscn1)c1cc(Cl)c(Oc2cnc(-c3cccnc3F)cc2-c2ccoc2)cc1F` [Example 56, 5-chloro-2-fluoro-4-((2′-fluoro-4-(furan-3-yl)-[2,3′-bipyridin]-5-yl)oxy)-N-(thiazol-4-yl)benzenesulfonamide], the IC50 was above 100 nM.

`N#Cc1cc(S(=O)(=O)Nc2cscn2)ccc1Oc1cnc(-c2ccc(C(F)(F)F)c(F)c2)cc1-c1cncnc1` [Example 94, 3-cyano-4-((6-(3-fluoro-4-(trifluoromethyl)phenyl)-4-(pyrimidin-5-yl)pyridin-3-yl)oxy)-N-(thiazol-4-yl)benzenesulfonamide] came in with an IC50 above 100 nM.

`N#Cc1cc(S(=O)(=O)Nc2nccs2)ccc1Oc1ccc(-c2cncnc2)nc1-c1ccoc1` [Example 106, 3-cyano-4-((2-(furan-3-yl)-6-(pyrimidin-5-yl)pyridin-3-yl)oxy)-N-(thiazol-2-yl)benzenesulfonamide] had an IC50 above 100 nM.

`N#Cc1cc(S(=O)(=O)Nc2nccs2)ccc1Oc1ccc(-c2ccsc2)nc1-c1ccoc1` [Example 113, 3-cyano-4-((2-(furan-3-yl)-6-(thiophen-3-yl)pyridin-3-yl)oxy)-N-(thiazol-2-yl)benzenesulfonamide] came in with a half-maximal inhibitory concentration (IC50) above 100 nM.

As to `Cn1cc(-c2cc(-c3ccccc3F)ncc2Oc2cc(F)c(S(=O)(=O)Nc3cscn3)cc2Cl)cn1` [Example 63, 5-chloro-2-fluoro-4-((6-(2-fluorophenyl)-4-(1-methyl-1H-pyrazol-4-yl)pyridin-3-yl)oxy)-N-(thiazol-4-yl)benzenesulfonamide 2,2,2-trifluoroacetate], the IC50 was above 100 nM.

`Cn1cc(-c2cc(-c3cnn(C)c3)c(Oc3ccc(S(=O)(=O)Nc4nccs4)cc3C#N)cn2)cn1` [Example 54, 4-((4,6-bis(1-methyl-1H-pyrazol-4-yl)pyridin-3-yl)oxy)-3-cyano-N-(thiazol-2-yl)benzenesulfonamide] gave an IC50 above 100 nM.

With `O=S(=O)(Nc1nccs1)c1ccc(C(O)c2ccc(-c3ccc(F)cc3)cc2-c2ccoc2)cc1` (stereo not shown) [Example 154, 4-((4′-fluoro-3-(furan-3-yl)-[1,1′-biphenyl]-4-yl)(hydroxy)methyl)-N-(thiazol-2-yl)benzenesulfonamide], the IC50 is above 100 nM.

Take `O=S(=O)(Nc1cscn1)c1cc(F)c(Oc2cnc(-c3ccc(F)c(F)c3)cc2-c2cncnc2)cc1F` [Example 96, 4-((6-(3,4-difluorophenyl)-4-(pyrimidin-5-yl)pyridin-3-yl)oxy)-2,5-difluoro-N-(thiazol-4-yl)benzenesulfonamide]: the IC50 is above 100 nM.

`O=S(=O)(Nc1cscn1)c1cc(Cl)c(Oc2cnc(-c3ccc(F)nc3)cc2-c2ccoc2)cc1F` [Example 57, 5-chloro-2-fluoro-4-((6′-fluoro-4-(furan-3-yl)-[2,3′-bipyridin]-5-yl)oxy)-N-(thiazol-4-yl)benzenesulfonamide]: the 50% inhibitory concentration (IC50) is above 100 nM.

With `N#Cc1cc(S(=O)(=O)Nc2cscn2)ccc1Oc1cnc(-c2cccc(F)c2)cc1-c1cncnc1` [Example 92, 3-cyano-4-((6-(3-fluorophenyl)-4-(pyrimidin-5-yl)pyridin-3-yl)oxy)-N-(thiazol-4-yl)benzenesulfonamide], the IC50 was above 100 nM.

Take `Cn1nccc1-c1nc(-c2ccc(F)nc2F)ccc1Oc1ccc(S(=O)(=O)Nc2nccs2)cc1C#N` [Example 128, 3-cyano-4-((2′,6′-difluoro-6-(1-methyl-1H-pyrazol-5-yl)-[2,3′-bipyridin]-5-yl)oxy)-N-(thiazol-2-yl)benzenesulfonamide]: the IC50 is above 100 nM.

Regarding `O=S(=O)(Nc1cscn1)c1cc(Cl)c(Oc2cnc(-c3ccccc3F)cc2-c2ccoc2)cc1F` [Example 60, 5-chloro-2-fluoro-4-((6-(2-fluorophenyl)-4-(furan-3-yl)pyridin-3-yl)oxy)-N-(thiazol-4-yl)benzenesulfonamide], the IC50 was above 100 nM.

With `N#Cc1cc(S(=O)(=O)Nc2nccs2)ccc1Oc1cnc(-c2ccc(F)cc2)cc1-c1ccoc1` [Example 7, 3-cyano-4-(6-(4-fluorophenyl)-4-(furan-3-yl)pyridin-3-yloxy)-N-(thiazol-2-yl)benzenesulfonamide], the IC50 lay within 51 to 100 nM.

The compound `O=S(=O)(Nc1cscn1)c1cc(Cl)c(Oc2ccc(-c3ccnc(F)c3)nc2-c2ccoc2)cc1F` [Example 132, 5-chloro-2-fluoro-4-((2′-fluoro-6-(furan-3-yl)-[2,4′-bipyridin]-5-yl)oxy)-N-(thiazol-4-yl)benzenesulfonamide] came in with an IC50 above 100 nM.

The compound `Cn1cc(-c2cc(-c3ccc(F)c(F)c3)ncc2Oc2cc(F)c(S(=O)(=O)Nc3cscn3)cc2Cl)cn1` [Example 67, 5-chloro-4-((6-(3,4-difluorophenyl)-4-(1-methyl-1H-pyrazol-4-yl)pyridin-3-yl)oxy)-2-fluoro-N-(thiazol-4-yl)benzenesulfonamide 2,2,2-trifluoroacetate] yielded an IC50 above 100 nM.

`N#Cc1cc(S(=O)(=O)Nc2nccs2)ccc1Oc1cnc(-c2ccccc2)cc1-c1cnn(C2CC2)c1` [Example 44, 3-cyano-4-((4-(1-cyclopropyl-1H-pyrazol-4-yl)-6-phenylpyridin-3-yl)oxy)-N-(thiazol-2-yl)benzenesulfonamide] had an IC50 above 100 nM.

`N#Cc1cc(S(=O)(=O)Nc2nccs2)ccc1Oc1ccc(-c2ccccc2F)nc1-c1ccoc1` [Example 108, 3-cyano-4-((6-(2-fluorophenyl)-2-(furan-3-yl)pyridin-3-yl)oxy)-N-(thiazol-2-yl)benzenesulfonamide] registered an IC50 of 51 to 100 nM.

Consider `O=S(=O)(Nc1cscn1)c1cc(Cl)c(Oc2cnc(-c3ccnc(F)c3)cc2-c2ccoc2)cc1F` [Example 62, 5-chloro-2-fluoro-4-((2′-fluoro-4-(furan-3-yl)-[2,4′-bipyridin]-5-yl)oxy)-N-(thiazol-4-yl)benzenesulfonamide], for which the IC50 is above 100 nM.

For the compound `N#Cc1cc(S(=O)(=O)Nc2nccs2)ccc1Oc1cnc(-c2cncnc2)cc1-c1ccoc1` [Example 15, 3-cyano-4-(4-(furan-3-yl)-6-(pyrimidin-5-yl)pyridin-3-yloxy)-N-(thiazol-2-yl)benzenesulfonamide], the IC50 is above 100 nM.

`O=S(=O)(Nc1nccs1)c1ccc(Oc2cnc(-c3ccoc3)cc2-c2ccoc2)c(F)c1` [Example 17, 4-((4,6-di(furan-3-yl)pyridin-3-yl)oxy)-3-fluoro-N-(thiazol-2-yl)benzenesulfonamide]: the IC50 is above 100 nM.

`N#Cc1cc(S(=O)(=O)Nc2nccs2)ccc1Oc1cnc(-c2ccccc2)cc1-c1ccncc1Cl` [Example 35, 4-((3′-chloro-6-phenyl-[4,4′-bipyridin]-3-yl)oxy)-3-cyano-N-(thiazol-2-yl)benzenesulfonamide] yielded an IC50 above 100 nM.

The compound `Cn1nccc1-c1nc(-c2ccc(F)nc2F)ccc1Oc1cc(F)c(S(=O)(=O)Nc2cscn2)cc1Cl` [Example 134, 5-chloro-4-((2′,6′-difluoro-6-(1-methyl-1H-pyrazol-5-yl)-[2,3′-bipyridin]-5-yl)oxy)-2-fluoro-N-(thiazol-4-yl)benzenesulfonamide] returned an IC50 above 100 nM.

Regarding `N#Cc1cc(S(=O)(=O)Nc2cscn2)ccc1Oc1cnc(-c2ccc(F)c(F)c2)cc1-c1cn[nH]c1` [Example 91, 3-cyano-4-((6-(3,4-difluorophenyl)-4-(1H-pyrazol-4-yl)pyridin-3-yl)oxy)-N-(thiazol-4-yl)benzenesulfonamide], the IC50 is above 100 nM.

The compound `Cn1nccc1-c1cc(-c2ccccc2)ncc1Oc1ccc(S(=O)(=O)Nc2nccs2)cc1C#N` [Example 2] yielded an IC50 above 100 nM.

`O=S(=O)(Nc1nccs1)c1ccc(C(O)c2ccc(-c3ccoc3)cc2-c2ccoc2)cc1` (stereo not shown) [Example 149, 4-((2,4-di(furan-3-yl)phenyl)(hydroxy)methyl)-N-(thiazol-2-yl)benzenesulfonamide]: the half-inhibitory concentration (IC50) was above 100 nM.

`O=S(=O)(Nc1nccs1)c1ccc(C(O)c2ccc(-c3cccc(F)c3)cc2-c2ccoc2)cc1` (stereo not shown) [Example 153, 4-((3′-fluoro-3-(furan-3-yl)-[1,1′-biphenyl]-4-yl)(hydroxy)methyl)-N-(thiazol-2-yl)benzenesulfonamide] yielded an IC50 of 51 to 100 nM.

`Cn1nccc1-c1nc(-c2cnoc2)ccc1Oc1ccc(S(=O)(=O)Nc2nccs2)cc1C#N` [Example 121, 3-cyano-4-((6-(isoxazol-4-yl)-2-(1-methyl-1H-pyrazol-5-yl)pyridin-3-yl)oxy)-N-(thiazol-2-yl)benzenesulfonamide]: the IC50 is above 100 nM.

The compound `N#Cc1cc(S(=O)(=O)Nc2nccs2)ccc1Oc1ccc(-c2ccnc(F)c2)nc1-c1ccoc1` [Example 112, 3-cyano-4-((2′-fluoro-6-(furan-3-yl)-[2,4′-bipyridin]-5-yl)oxy)-N-(thiazol-2-yl)benzenesulfonamide] showed a half-maximal inhibitory concentration (IC50) of 51 to 100 nM.
